Ki and inhibition data for 16 compounds are collected here from ChEMBL document CHEMBL1148812, “4-[omega-[4-arylpiperazin-1-yl]alkoxy]phenyl)imidazo[1,2-a]pyridine derivatives: fluorescent high-affinity dopamine D3 receptor ligands as potential probes for receptor visualization” (J Med Chem, 2007).

For experiment [1], the target named is T1, D(2) dopamine receptor (Homo sapiens, UniProt P14416).
Experiment [2] addresses D(3) dopamine receptor (Homo sapiens, UniProt P35462).
Description: Displacement of [3H]spiroperidol from human cloned dopamine D3 receptor
Experiment [3] deals with T1, D(2) dopamine receptor. Put plainly: Displacement of [3H]spiroperidol from human cloned dopamine D2L receptor at 10 uM. A general note: Displacement assays read how much labelled ligand stays bound in the presence of the test substance.

D(3) dopamine receptor, sequence (P35462 whole entry): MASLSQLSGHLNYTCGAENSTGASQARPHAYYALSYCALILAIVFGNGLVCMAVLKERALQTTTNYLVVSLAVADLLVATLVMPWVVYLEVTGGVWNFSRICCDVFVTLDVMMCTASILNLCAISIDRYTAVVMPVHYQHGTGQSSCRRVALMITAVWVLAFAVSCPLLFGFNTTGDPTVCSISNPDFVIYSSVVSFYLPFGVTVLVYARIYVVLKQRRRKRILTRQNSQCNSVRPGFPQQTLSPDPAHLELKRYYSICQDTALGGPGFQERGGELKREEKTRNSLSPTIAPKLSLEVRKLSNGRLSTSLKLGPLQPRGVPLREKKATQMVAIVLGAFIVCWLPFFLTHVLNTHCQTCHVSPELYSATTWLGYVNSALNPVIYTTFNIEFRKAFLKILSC
T1 sequence (P14416 whole entry): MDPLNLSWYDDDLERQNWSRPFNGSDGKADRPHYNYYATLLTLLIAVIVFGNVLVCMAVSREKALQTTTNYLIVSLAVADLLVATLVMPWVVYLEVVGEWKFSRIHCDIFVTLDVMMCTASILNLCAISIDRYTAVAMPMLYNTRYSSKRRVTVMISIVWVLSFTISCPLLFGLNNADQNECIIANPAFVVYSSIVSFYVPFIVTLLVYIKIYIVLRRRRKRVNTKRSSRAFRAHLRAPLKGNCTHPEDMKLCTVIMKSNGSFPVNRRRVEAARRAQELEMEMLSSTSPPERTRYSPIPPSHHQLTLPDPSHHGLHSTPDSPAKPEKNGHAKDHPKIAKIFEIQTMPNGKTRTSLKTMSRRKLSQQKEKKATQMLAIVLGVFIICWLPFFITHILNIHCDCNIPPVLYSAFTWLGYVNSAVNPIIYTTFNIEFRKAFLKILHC

A word on the Ki: it is the dissociation constant of the complex between target and ligand, obtained from inhibition or displacement. A lower Ki goes with higher affinity. With `COc1ccccc1N1CCN(CCCOc2ccc(-c3cn4ccccc4n3)cc2)CC1`, the Ki in experiment [1] stood at 49 nM; in experiment [2], 1.6 nM.

As for `Cc1ccn2cc(-c3ccc(OCCCCN4CCN(c5cccc(Cl)c5Cl)CC4)cc3)nc2c1`, the inhibition constant Ki in experiment [1] worked out at 111 nM; in experiment [2], 60 nM.

Turning to `Cc1cccn2cc(-c3ccc(OCCCCN4CCN(c5cccc(Cl)c5Cl)CC4)cc3)nc12`, the figures for the inhibition constant (Ki) in experiment [1] and in experiment [2] were 560 nM and 54.4 nM, respectively.

Regarding `Cc1ccn2cc(-c3ccc(OCCCN4CCN(c5cccc(Cl)c5Cl)CC4)cc3)nc2c1`, the values for the inhibition constant Ki in experiment [1] and in experiment [2] were 83 nM and 8 nM, respectively.

On to `Cc1ccc2nc(-c3ccc(OCCCCN4CCN(c5cccc(Cl)c5Cl)CC4)cc3)cn2c1`, for which the Ki in experiment [1] was 149 nM; in experiment [2], 8 nM.

As for `COc1ccccc1N1CCN(CCCCOc2ccc(-c3cn4ccc(C)cc4n3)cc2)CC1`, the Ki in experiment [1] was 52 nM; in experiment [2], 40 nM.

As for `COc1ccccc1N1CCN(CCCOc2ccc(-c3cn4ccc(C)cc4n3)cc2)CC1`, the values for the Ki in experiment [1] and in experiment [2] were 78 nM and 71 nM, respectively.

As for `COc1ccccc1N1CCN(CCCCOc2ccc(-c3cn4cc(C)ccc4n3)cc2)CC1`, the figures for the Ki in experiment [1] and in experiment [2] were 47 nM and 146 nM, respectively.

`COc1ccccc1N1CCN(CCCOc2ccc(-c3cn4cccc(C)c4n3)cc2)CC1`: the results for the Ki in experiment [1] and in experiment [2] were 49 nM and 50 nM, respectively.

Broadly, the inhibition is the share of the control response that was lost under treatment. A lower inhibition goes with a response near the control. `Cc1ccc2nc(-c3ccc(OCCCN4CCN(c5cccc(Cl)c5Cl)CC4)cc3)cn2c1`: the inhibition in experiment [3] turned out to be 31%. This compound showed an inhibition constant (Ki) in experiment [2] of 28.9 nM.

On to `Clc1cccc(N2CCN(CCCOc3ccc(-c4cn5ccccc5n4)cc3)CC2)c1Cl`, for which the Ki came to 44 nM in experiment [1] and 156 nM in experiment [2].

In the case of `COc1ccccc1N1CCN(CCCCOc2ccc(-c3cn4ccccc4n3)cc2)CC1`, the Ki worked out at 179 nM in experiment [1] and 0.72 nM in experiment [2].

With `Clc1cccc(N2CCN(CCCCOc3ccc(-c4cn5ccccc5n4)cc3)CC2)c1Cl`, the inhibition constant (Ki) in experiment [1] turned out to be 68 nM; in experiment [2], 38 nM.

Take `COc1ccccc1N1CCN(CCCOc2ccc(-c3cn4cc(C)ccc4n3)cc2)CC1`: the Ki in experiment [1] stood at 78 nM; in experiment [2] it was 176 nM.

On to `Cc1cccn2cc(-c3ccc(OCCCN4CCN(c5cccc(Cl)c5Cl)CC4)cc3)nc12`, for which the Ki was found to be 125 nM in experiment [1] and 225 nM in experiment [2].

Consider `COc1ccccc1N1CCN(CCCCOc2ccc(-c3cn4cccc(C)c4n3)cc2)CC1`, for which the Ki in experiment [1] worked out at 159 nM; in experiment [2], 385 nM.
